This is an account of results in ChEMBL document CHEMBL3351632, “Design and synthesis of 4-heteroaryl 1,2,3,4-tetrahydroisoquinolines as triple reuptake inhibitors” (ACS Med Chem Lett, 2014).

A short description of series [1]: Clearance in cynomolgus monkey at 2 mg/kg, po and 0.5 mg/kg, iv. To be noted: in vivo. In kind it is ADME, organism-based, Macaca fascicularis.
Series [2] in a line: Oral bioavailability at steady state in cynomolgus monkey at 2 mg/kg. It is filed as ADME, organism-based, Macaca fascicularis. To be noted: in vivo.
The nature of series [3]: Oral bioavailability in Sprague-Dawley rat at 10 mg/kg. It is filed as ADME, organism-based. The settings on record: in vivo.
A short description of series [4]: Volume of distribution at steady state in cynomolgus monkey at 2 mg/kg, po and 0.5 mg/kg, iv. In kind it is ADME, organism-based, Macaca fascicularis. To be noted: in vivo, read-out: Vdss.
Series [5] can be described thus: Clearance in Sprague-Dawley rat at 10 mg/kg, po and 1 mg/kg, iv. It is filed as ADME, organism-based. To be noted: in vivo.
Series [6] is described as follows: Volume of distribution at steady state in Sprague-Dawley rat at 10 mg/kg, po and 1 mg/kg, iv. In kind it is ADME, organism-based. The settings on record: in vivo, read-out: Vdss.
Series [7] has as its system Liver microsome. As to the kind of experiment: Drug metabolism in rat liver microsomes assessed as formation of (+)-2-(4-(benzo[b]thiophen-5-yl)-2-methyl-1,2,3,4-tetrahydroisoquinolin-7-ylamino)ethanol. It is filed as ADME. A general note: Liver microsomes are vesicles of endoplasmic reticulum, rich in cytochrome P450 enzymes.
Series [8] in a line: Ratio of drug uptake in brain to plasma of Sprague-Dawley rat at 10 mg/kg, po measured after 1 hr. Set-up: dose 10 mg/kg, route oral. It is filed as ADME, organism-based. The settings on record: read-out: BPR.
Series [9] deals with Liver microsome. The experiment in a line: Drug metabolism in human liver microsomes assessed as formation of (+)-2-(4-(benzo[b]thiophen-5-yl)-2-methyl-1,2,3,4-tetrahydroisoquinolin-7-ylamino)ethanol. It is filed as ADME.
For series [10], the species on record is Rattus norvegicus. The experiment in a line: Drug metabolism in rat assessed as formation of (+)-2-(4-(benzo[b]thiophen-5-yl)-2-methyl-1,2,3,4-tetrahydroisoquinolin-7-ylamino)ethanol. It is filed as ADME, organism-based. The settings on record: in vivo.

As a reminder, the bioavailability is dose-corrected exposure relative to a reference, in per cent. Turning to `CN1Cc2cc(N3CCOCC3)ccc2[C@@H](c2ccc3sccc3c2)C1`, the clearance amounted to 27 mL/min/kg in series [1] and 47 mL/min/kg in series [5]. Moreover, the values for the bioavailability in [2] and in [3] were 39% and 81%, respectively. For the same molecule, the Vd in series [4] is 16 L/kg; in series [6], 14 L/kg. In addition, the figures for the Drug metabolism entry in series [7], in series [9] and in series [10] were “metabolite_detected”, “metabolite_detected” and “metabolite_notdetected”, respectively. Also, the Kp at 1 h in series [8] amounted to 3.
